The test system of assay [1] is H. influenzae HI551. Briefly: Rat lung infection model. In kind it is in vivo. The settings on record: H. influenzae intratracheal, 50 mg/kg orally at 5, 24, 48 hours.
For assay [2], the system named is E. coli DH10B EC971 LacZ. Nature of the assay: MIC, E. coli DH10B recombinantly expressing control gene. Further: unit not given here. The settings on record: E. coli DH10B, arabinose-induced, ampicillin in medium.
The subject of assay [3] is E. coli DH10B EC1153 Tet(X). Briefly: MIC, E. coli DH10B recombinantly expressing tetracycline-resistance gene. Further: unit not given here. The settings on record: arabinose-induced, ampicillin in medium.
The subject of assay [4] is E. coli DH10B EC969 TetM. The assay is described as above. The settings on record: arabinose-induced, ampicillin in medium.
The test system of assay [5] is E. coli DH10B EC970 TetK. The assay is described as above. The note with it: arabinose-induced, ampicillin in medium. Further: unit not given here.
For assay [6], the system named is E. coli DH10B EC1082 TetA. The assay is described as above. The settings on record: arabinose-induced, ampicillin in medium. Further: unit not given here.
In assay [7] the test system is E. coli DH10B EC1083 TetB. The description is as above. The settings on record: arabinose-induced, ampicillin in medium. Further: unit not given here.

We go through 2 molecules from patent US20170107179A1 (Tetraphase Pharmaceuticals, Inc., priority 2010, published 2017).
Wherever MIC EC969 TetM is given: unit not given here.

With `CC[C@H]1OC(=O)[C@H](C)[C@@H](O[C@H]2C[C@@](C)(OC)[C@@H](O)[C@H](C)O2)[C@H](C)[C@@H](O[C@@H]2O[C@H](C)C[C@H](N(C)C)[C@H]2O)[C@](C)(O)C[C@@H](C)CN(C)[C@H](C)[C@@H](O)[C@]1(C)O` [Azithromycin, azithromycin, reference compound], the “reduction in lung CFU, oral comparator” value in assay [1] worked out at 6.24±0.03 log10.

For `CO/N=C(\C(=O)N[C@@H]1C(=O)N2C(C(=O)O)=C(CSc3nc(=O)c(=O)[nH]n3C)CS[C@H]12)c1csc(N)n1` [Ceftriaxone], the “MIC EC971 LacZ” value in assay [2] was found to be 0.125. In addition, the “MIC EC1153 Tet(X)” value in assay [3] is on record as 0.125. The “MIC EC969 TetM” value in assay [4] is on record as 0.5. The “MIC EC970 TetK” value in assay [5] is on record as 0.0625. In assay [6], the “MIC EC1082 TetA” value was found to be 0.0625. Also, in assay [7], the “MIC EC1083 TetB” value amounted to 0.0625.
